Measurements reported in the NIST ThermoML archive (doi:10.1016/j.tca.2014.10.001).

Assay: mn = molality of the nth substance listed, in mol/kg
Conditions: 100 kPa, Liquid; for electrical conductivity: Alternating current cell with electrodes; for speed of sound: Frequency=3 MHz, Sing-around technique in a fixed-path interferometer; for mass density: Vibrating tube method

CCCCn1cc[n+](C)c1C.F[B-](F)(F)F [1-butyl-2,3-dimethylimidazolium tetrafluoroborate] + O
Conditions	electrical conductivity [S/m]	mass density [kg/m3]	speed of sound [m/s]
298.15 K, m1 = 0.0308	–	998.165	1500.7
298.15 K, m1 = 0.04107	–	998.537	1502.3
298.15 K, m1 = 0.05137	–	998.909	1504
298.15 K, m1 = 0.06162	–	999.277	1505.7
298.15 K, m1 = 0.08198	–	1000	1509
298.15 K, m1 = 0.1024	–	1000.72	1511.6
298.15 K, m1 = 0.1072	0.787	–	–
298.15 K, m1 = 0.1123	0.816	–	–
298.15 K, m1 = 0.1179	0.847	–	–
298.15 K, m1 = 0.1231	–	1001.43	1512.3
298.15 K, m1 = 0.1242	0.881	–	–
298.15 K, m1 = 0.1311	0.92	–	–
298.15 K, m1 = 0.1388	0.962	–	–
298.15 K, m1 = 0.1436	–	1002.11	1513
298.15 K, m1 = 0.1474	1.01	–	–
298.15 K, m1 = 0.1573	1.06	–	–
298.15 K, m1 = 0.164	–	1002.79	1513.5
298.15 K, m1 = 0.1685	1.12	–	–
298.15 K, m1 = 0.1815	1.19	–	–
298.15 K, m1 = 0.1846	–	1003.47	1514
298.15 K, m1 = 0.1966	1.27	–	–
298.15 K, m1 = 0.205	–	1004.13	1514.6
298.15 K, m1 = 0.2145	1.35	–	–
308.15 K, m1 = 0.0308	–	995.089	1523
308.15 K, m1 = 0.0309	0.278	–	–
308.15 K, m1 = 0.032	0.287	–	–
308.15 K, m1 = 0.0333	0.299	–	–
308.15 K, m1 = 0.0347	0.305	–	–
308.15 K, m1 = 0.0362	0.32	–	–
308.15 K, m1 = 0.0379	0.331	–	–
308.15 K, m1 = 0.0397	0.344	–	–
308.15 K, m1 = 0.04107	–	995.443	1524.2
308.15 K, m1 = 0.0417	0.359	–	–
308.15 K, m1 = 0.0439	0.378	–	–
308.15 K, m1 = 0.0463	0.396	–	–
308.15 K, m1 = 0.049	0.415	–	–
308.15 K, m1 = 0.05137	–	995.796	1525.5
308.15 K, m1 = 0.0521	0.437	–	–
308.15 K, m1 = 0.0556	0.462	–	–
308.15 K, m1 = 0.0596	0.493	–	–
308.15 K, m1 = 0.06162	–	996.146	1526.8
308.15 K, m1 = 0.0642	0.531	–	–
308.15 K, m1 = 0.0695	0.568	–	–
308.15 K, m1 = 0.0719	0.585	–	–
308.15 K, m1 = 0.0745	0.603	–	–
308.15 K, m1 = 0.0772	0.624	–	–
308.15 K, m1 = 0.0802	0.649	–	–
308.15 K, m1 = 0.08198	–	996.836	1529
308.15 K, m1 = 0.0834	0.673	–	–
308.15 K, m1 = 0.0869	0.698	–	–
308.15 K, m1 = 0.0906	0.727	–	–
308.15 K, m1 = 0.0947	0.756	–	–
308.15 K, m1 = 0.0992	0.788	–	–
308.15 K, m1 = 0.1024	–	997.517	1531.1
308.15 K, m1 = 0.1042	0.819	–	–
308.15 K, m1 = 0.1097	0.851	–	–
308.15 K, m1 = 0.1158	0.883	–	–
308.15 K, m1 = 0.1225	0.919	–	–
308.15 K, m1 = 0.1231	–	998.186	1531.7
308.15 K, m1 = 0.1302	0.965	–	–
308.15 K, m1 = 0.1388	1.01	–	–
308.15 K, m1 = 0.1436	–	998.836	1532.1
308.15 K, m1 = 0.1487	1.07	–	–
308.15 K, m1 = 0.1602	1.13	–	–
308.15 K, m1 = 0.164	–	999.479	1532.5
308.15 K, m1 = 0.1735	1.2	–	–
308.15 K, m1 = 0.1846	–	1000.13	1533
308.15 K, m1 = 0.1892	1.29	–	–
308.15 K, m1 = 0.205	–	1000.75	1533.6
308.15 K, m1 = 0.208	1.4	–	–
